Tests used:
hMPV-GFP virus = assay: microbe, parasite or virus in culture; type: cell-based, human metapneumovirus; settings: VERO cells infected with hMPV-GFP, 48 hrs, GFP-expressing cells counted; read-out: hMPV EC50
Outline: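 Antiviral IC50 was derived from imaging counts of GFP-expressing cells, with CC50 from a same-well CellTiter-Glo read, both by 4-parameter logistic fitting. VERO cells plus hMPV-GFP (MOI 1.25) were exposed 48 h at 37 °C to 10-point 3-fold compound dilutions (typical final 40,300–2 nM).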

RSV-A2-GFP virus = assay: microbe, parasite or virus in culture; type: cell-based, Human Respiratory Syncytial Virus; settings: Calu-1 cells infected with RSV-A2-GFP, 96 hrs, GFP-expressing cells counted; read-out: RSV EC50
Outline: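 IC50 (GFP-expressing cell counts by Acumen imaging) and CC50 (same-well CellTiter-Glo) were obtained by 4-parameter logistic fitting. Compounds were tested in 10-point 3-fold series for 96 h at 37° C, 5% CO2. Thawed Calu-1 ARF cells were infected at MOI 1.2 with GFP-reporter RSV-A2 in 2% FBS DMEM.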

Cc1nc(-c2ncccn2)sc1C(=O)N1C[C@@H]2[C@H](C1)[C@H]2Oc1cc(C(C)(C)N)cc(-c2cccc(F)c2)n1 [Example 16, ((1R,5S,6s)-6-((4-(2-aminopropan-2-yl)-6-(3-fluorophenyl)pyridin-2-yl)oxy)-3-azabicyclo[3.1.0]hexan-3-yl)(4-methyl-2-(pyrimidin-2-yl)thiazol-5-yl)methanone]
EC50 (hMPV-GFP virus): 0.01 to 0.1 µM | EC50 (RSV-A2-GFP virus): < 0.01 µM

Cc1nc(-c2ncccn2)sc1C(=O)N1C[C@@H]2[C@H](C1)[C@H]2Oc1cc(C(C)(C)N)cc(-c2ccc(F)c(Cl)c2)n1 [Example 17, ((1R,5S,6s)-6-((4-(2-aminopropan-2-yl)-6-(3-chloro-4-fluorophenyl)pyridin-2-yl)oxy)-3-azabicyclo[3.1.0]hexan-3-yl)(4-methyl-2-(pyrimidin-2-yl)thiazol-5-yl)methanone]
EC50 (hMPV-GFP virus): 0.01 to 0.1 µM | EC50 (RSV-A2-GFP virus): < 0.01 µM

Cc1nc(-c2ncccn2)sc1C(=O)N1C[C@@H]2[C@H](C1)[C@H]2Oc1cc(C(C)(C)N)cc(-c2ccc(Cl)c(F)c2)n1 [Example 18, ((1R,5S,6s)-6-((4-(2-aminopropan-2-yl)-6-(4-chloro-3-fluorophenyl)pyridin-2-yl)oxy)-3-azabicyclo[3.1.0]hexan-3-yl)(4-methyl-2-(pyrimidin-2-yl)thiazol-5-yl)methanone]
EC50 (hMPV-GFP virus): 0.01 to 0.1 µM | EC50 (RSV-A2-GFP virus): < 0.01 µM

Cc1nc(-c2ncccn2)sc1C(=O)N1C[C@@H]2[C@H](C1)[C@H]2Oc1cc(C(C)(C)N)cc(-c2ccc(Cl)cc2)n1 [Example 19, ((1R,5S,6s)-6-((4-(2-aminopropan-2-yl)-6-(4-chlorophenyl)pyridin-2-yl)oxy)-3-azabicyclo[3.1.0]hexan-3-yl)(4-methyl-2-(pyrimidin-2-yl)thiazol-5-yl)methanone]
EC50 (hMPV-GFP virus): < 0.01 µM | EC50 (RSV-A2-GFP virus): < 0.01 µM

Cc1nc(-c2ncccn2)sc1C(=O)N1C[C@@H]2[C@H](C1)[C@H]2Oc1cc(C(C)(C)N)cc(-c2ccccc2)n1 [Example 20, ((1R,5S,6s)-6-((4-(2-aminopropan-2-yl)-6-phenylpyridin-2-yl)oxy)-3-azabicyclo[3.1.0]hexan-3-yl)(4-methyl-2-(pyrimidin-2-yl)thiazol-5-yl)methanone]
EC50 (hMPV-GFP virus): > 0.1 µM | EC50 (RSV-A2-GFP virus): < 0.01 µM

Cc1nc(-c2ncccn2)sc1C(=O)N1C[C@@H]2[C@H](C1)[C@H]2Oc1cc(C(C)(C)N)cc(-c2ccc(C3CC3)cc2)n1 [Example 22, ((1R,5S,6s)-6-((4-(2-aminopropan-2-yl)-6-(4-cyclopropylphenyl)pyridin-2-yl)oxy)-3-azabicyclo[3.1.0]hexan-3-yl)(4-methyl-2-(pyrimidin-2-yl)thiazol-5-yl)methanone]
EC50 (hMPV-GFP virus): > 0.1 µM | EC50 (RSV-A2-GFP virus): < 0.01 µM

Cc1nc(-c2ncccn2)sc1C(=O)N1C[C@@H]2[C@H](C1)[C@H]2Oc1cc(C(C)(C)N)cc(-c2ccc(C#N)cc2)n1 [Example 23, 4-(4-(2-aminopropan-2-yl)-6-(((1R,5S,6s)-3-(4-methyl-2-(pyrimidin-2-yl)thiazole-5-carbonyl)-3-azabicyclo[3.1.0]hexan-6-yl)oxy)pyridin-2-yl)benzonitrile]
EC50 (hMPV-GFP virus): > 0.1 µM | EC50 (RSV-A2-GFP virus): < 0.01 µM

Cc1nc(-c2ncccn2)sc1C(=O)N1C[C@@H]2[C@H](C1)[C@H]2Oc1cc(C(C)(C)N)cc(-c2ccc(OC(F)F)cc2)n1 [Example 24, ((1R,5S,6s)-6-((4-(2-aminopropan-2-yl)-6-(4-(difluoromethoxy)phenyl)pyridin-2-yl)oxy)-3-azabicyclo[3.1.0]hexan-3-yl)(4-methyl-2-(pyrimidin-2-yl)thiazol-5-yl)methanone]
EC50 (hMPV-GFP virus): 0.01 to 0.1 µM | EC50 (RSV-A2-GFP virus): < 0.01 µM

Cc1nc(-c2ncccn2)sc1C(=O)N1C[C@@H]2[C@H](C1)[C@H]2Oc1cc(C(C)(C)N)cc(-c2ccc(C(F)F)cc2)n1 [Example 25, ((1R,5S,6s)-6-((4-(2-aminopropan-2-yl)-6-(4-(difluoromethyl)phenyl)pyridin-2-yl)oxy)-3-azabicyclo[3.1.0]hexan-3-yl)(4-methyl-2-(pyrimidin-2-yl)thiazol-5-yl)methanone]
EC50 (hMPV-GFP virus): 0.01 to 0.1 µM | EC50 (RSV-A2-GFP virus): < 0.01 µM

Cc1nc(-c2ncccn2)sc1C(=O)N1C[C@@H]2[C@H](C1)[C@H]2Oc1cc(C(C)(C)N)cc(-c2ccc(C(C)(F)F)cc2)n1 [Example 26, ((1R,5S,6s)-6-((4-(2-aminopropan-2-yl)-6-(4-(1,1-difluoroethyl)phenyl)pyridin-2-yl)oxy)-3-azabicyclo[3.1.0]hexan-3-yl)(4-methyl-2-(pyrimidin-2-yl)thiazol-5-yl)methanone]
EC50 (hMPV-GFP virus): 0.01 to 0.1 µM | EC50 (RSV-A2-GFP virus): < 0.01 µM

Cc1nc(-c2ncccn2)sc1C(=O)N1C[C@@H]2[C@H](C1)[C@H]2Oc1cc(C(C)(C)N)cc(-c2ccc(C(F)(F)F)cc2)n1 [Example 27, ((1R,5S,6s)-6-((4-(2-aminopropan-2-yl)-6-(4-(trifluoromethyl)phenyl)pyridin-2-yl)oxy)-3-azabicyclo[3.1.0]hexan-3-yl)(4-methyl-2-(pyrimidin-2-yl)thiazol-5-yl)methanone]
EC50 (hMPV-GFP virus): 0.01 to 0.1 µM | EC50 (RSV-A2-GFP virus): < 0.01 µM

Cc1nc(-c2ncccn2)sc1C(=O)N1C[C@@H]2[C@H](C1)[C@H]2Oc1cc(C(C)(C)N)cc(-c2ccc(C(F)(F)F)nc2)n1 [Example 28, ((1R,5S,6s)-6-((4-(2-aminopropan-2-yl)-6′-(trifluoromethyl)-[2,3′-bipyridin]-6-yl)oxy)-3-azabicyclo[3.1.0]hexan-3-yl)(4-methyl-2-(pyrimidin-2-yl)thiazol-5-yl)methanone]
EC50 (hMPV-GFP virus): 0.01 to 0.1 µM | EC50 (RSV-A2-GFP virus): < 0.01 µM

Cc1nc(-c2ncccn2)sc1C(=O)N1C[C@@H]2[C@H](C1)[C@H]2Oc1cc(C(C)(C)N)cc(-c2ccc(C(F)(F)F)c(Cl)c2)n1 [Example 29, ((1R,5S,6s)-6-((4-(2-aminopropan-2-yl)-6-(3-chloro-4-(trifluoromethyl)phenyl)pyridin-2-yl)oxy)-3-azabicyclo[3.1.0]hexan-3-yl)(4-methyl-2-(pyrimidin-2-yl)thiazol-5-yl)methanone]
EC50 (hMPV-GFP virus): 0.01 to 0.1 µM | EC50 (RSV-A2-GFP virus): < 0.01 µM

Cc1nc(-c2ncccn2)sc1C(=O)N1C[C@@H]2[C@H](C1)[C@H]2Oc1cc(C(C)(C)N)cc(-c2ccc(C(F)(F)F)cc2Cl)n1 [Example 30, ((1R,5S,6s)-6-((4-(2-aminopropan-2-yl)-6-(2-chloro-4-(trifluoromethyl)phenyl)pyridin-2-yl)oxy)-3-azabicyclo[3.1.0]hexan-3-yl)(4-methyl-2-(pyrimidin-2-yl)thiazol-5-yl)methanone]
EC50 (hMPV-GFP virus): 0.01 to 0.1 µM | EC50 (RSV-A2-GFP virus): < 0.01 µM

Cc1nc(-c2ncccn2)sc1C(=O)N1C[C@@H]2[C@H](C1)[C@H]2Oc1cc(C(C)(C)N)cc(-c2ccc(C(F)(F)F)c(F)c2F)n1 [Example 31, ((1R,5S,6s)-6-((4-(2-aminopropan-2-yl)-6-(2,3-difluoro-4-(trifluoromethyl)phenyl)pyridin-2-yl)oxy)-3-azabicyclo[3.1.0]hexan-3-yl)(4-methyl-2-(pyrimidin-2-yl)thiazol-5-yl)methanone]
EC50 (hMPV-GFP virus): 0.01 to 0.1 µM | EC50 (RSV-A2-GFP virus): < 0.01 µM

Cc1ccc(-c2cc(C(C)(C)N)cc(O[C@H]3[C@@H]4CN(C(=O)c5sc(-c6ncccn6)nc5C)C[C@@H]43)n2)cc1C [Example 32, ((1R,5S,6s)-6-((4-(2-aminopropan-2-yl)-6-(3,4-dimethylphenyl)pyridin-2-yl)oxy)-3-azabicyclo[3.1.0]hexan-3-yl)(4-methyl-2-(pyrimidin-2-yl)thiazol-5-yl)methanone]
EC50 (hMPV-GFP virus): > 0.1 µM | EC50 (RSV-A2-GFP virus): < 0.01 µM

Cc1ccc(-c2cc(C(C)(C)N)cc(O[C@H]3[C@@H]4CN(C(=O)c5sc(-c6ncccn6)nc5C)C[C@@H]43)n2)c(C)c1 [Example 33, ((1R,5S,6s)-6-((4-(2-aminopropan-2-yl)-6-(2,4-dimethylphenyl)pyridin-2-yl)oxy)-3-azabicyclo[3.1.0]hexan-3-yl)(4-methyl-2-(pyrimidin-2-yl)thiazol-5-yl)methanone]
EC50 (hMPV-GFP virus): > 0.1 µM | EC50 (RSV-A2-GFP virus): < 0.01 µM

Cc1nc(-c2ncccn2)sc1C(=O)N1C[C@@H]2[C@H](C1)[C@H]2Oc1cc(C(C)(C)N)cc(-c2ccc3c(c2)CCO3)n1 [Example 34, ((1R,5S,6s)-6-((4-(2-aminopropan-2-yl)-6-(2,3-dihydrobenzofuran-5-yl)pyridin-2-yl)oxy)-3-azabicyclo[3.1.0]hexan-3-yl)(4-methyl-2-(pyrimidin-2-yl)thiazol-5-yl)methanone]
EC50 (hMPV-GFP virus): > 0.1 µM | EC50 (RSV-A2-GFP virus): < 0.01 µM

Cc1cc(-c2cc(C(C)(C)N)cc(O[C@H]3[C@@H]4CN(C(=O)c5sc(-c6ncccn6)nc5C)C[C@@H]43)n2)ccc1F [Example 35, ((1R,5S,6s)-6-((4-(2-aminopropan-2-yl)-6-(4-fluoro-3-methylphenyl)pyridin-2-yl)oxy)-3-azabicyclo[3.1.0]hexan-3-yl)(4-methyl-2-(pyrimidin-2-yl)thiazol-5-yl)methanone]
EC50 (hMPV-GFP virus): > 0.1 µM | EC50 (RSV-A2-GFP virus): < 0.01 µM

Cc1nc(-c2ncccn2)sc1C(=O)N1C[C@@H]2[C@H](C1)[C@H]2Oc1cc(C(C)(C)N)cc(-c2ccc(C#N)c(F)c2)n1 [Example 36, 4-(4-(2-aminopropan-2-yl)-6-(((1R,5S,6s)-3-(4-methyl-2-(pyrimidin-2-yl)thiazole-5-carbonyl)-3-azabicyclo[3.1.0]hexan-6-yl)oxy)pyridin-2-yl)-2-fluorobenzonitrile]
EC50 (hMPV-GFP virus): 0.01 to 0.1 µM | EC50 (RSV-A2-GFP virus): < 0.01 µM

Cc1ccc(-c2cc(C(C)(C)N)cc(O[C@H]3[C@@H]4CN(C(=O)c5sc(-c6ncccn6)nc5C)C[C@@H]43)n2)cc1F [Example 37, ((1R,5S,6s)-6-((4-(2-aminopropan-2-yl)-6-(3-fluoro-4-methylphenyl)pyridin-2-yl)oxy)-3-azabicyclo[3.1.0]hexan-3-yl)(4-methyl-2-(pyrimidin-2-yl)thiazol-5-yl)methanone]
EC50 (hMPV-GFP virus): 0.01 to 0.1 µM | EC50 (RSV-A2-GFP virus): < 0.01 µM

— US12643882B2, “Inhibitors of human respiratory syncytial virus and metapneumovirus” (priority 2022, dated 2026)
